Article PMC9271048, “Probing strigolactone perception mechanisms with rationally designed small-molecule agonists stimulating germination of root parasitic weeds” (Nature Communications, 2022)

tested on: PaKAI2s (5 KAI2 protein homologs in P. aegyptiaca); experiment: YLG-based competition assay on KAI2 protein homologs of P. aegyptiaca; assay type: biochemical, Phelipanche aegyptiaca; settings: KAI2C; YLG competition; Supplementary Fig. 27; read-out: IC50, replicate 1
Source text: In P. aegyptiaca, 5 KAI2s have been proposed as the SL receptors for the regulation of seed germination. […] The high sequence similarity may explain the consistency of these compounds in inducing germination in both S. hermonthica and P. aegyptiaca.
(§1) The excitation and emission wavelengths of YLG are 480 and 520 nm, respectively. We used a fluorescence spectrophotometer (CARY Eclipse) to detect the fluorescence intensity change of YLG during the enzymatic hydrolysis assay process. All the testing compounds and YLG were dissolved in DMSO and prepared as stock solutions just before use. […] The changes of fluorescence at 520 nm of each well were recorded every 1 min for 30 min. Using the reaction mixture without adding enzyme and tested compounds as the background control. After subtracting the background hydrolysis, a linear fluorescence increase in 8 min was used for further inspection. The IC50 values were determined via fitting relative inhibition percentages with the varying concentrations of compounds in Microsoft Excel.
Supplementary Fig. 27. Binding of compounds 4a, (R)- and (S)-4a, and 4g-i to the HTL proteins in S. hermonthica and KAI2 protein homologs in P. aegyptiaca. In the competitive inhibitory activity assay, YLG (3 µM) was used as the fluorogenic substrate. Error bar indicates SD (n = 3 biologically independent experiments).
(1 picture or pasted object on this page, not shown here)

Row | Structure (SMILES) | IC50
1 | CC1=C[C@@H](OC(=O)N2CCN(C(=O)COc3ccc(Br)cc3C)CC2)OC1=O [(R)-4a] | 53.2 µM

same assay, conditions: KAI2C; YLG competition; Supplementary Fig. 27; read-out: IC50, replicate 2

Row | Structure (SMILES) | IC50
2 | CC1=C[C@@H](OC(=O)N2CCN(C(=O)COc3ccc(Br)cc3C)CC2)OC1=O [(R)-4a] | 56.3 µM

same assay, conditions: KAI2C; YLG competition; Supplementary Fig. 27; read-out: IC50, replicate 3

Row | Structure (SMILES) | IC50
3 | CC1=C[C@@H](OC(=O)N2CCN(C(=O)COc3ccc(Br)cc3C)CC2)OC1=O [(R)-4a] | 44.7 µM

same assay, conditions: KAI2C; average of 3 replicates; Supplementary Fig. 27; read-out: IC50, average

Row | Structure (SMILES) | IC50
4 | CC1=C[C@@H](OC(=O)N2CCN(C(=O)COc3ccc(Br)cc3C)CC2)OC1=O [(R)-4a] | 51.4 µM

same assay, conditions: KAI2d1; YLG competition; Supplementary Fig. 27; read-out: IC50, replicate 1

Row | Structure (SMILES) | IC50
5 | CC1=C[C@@H](OC(=O)N2CCN(C(=O)COc3ccc(Br)cc3C)CC2)OC1=O [(R)-4a] | > 100 µM

same assay, conditions: KAI2d1; YLG competition; Supplementary Fig. 27; read-out: IC50, replicate 2

Row | Structure (SMILES) | IC50
6 | CC1=C[C@@H](OC(=O)N2CCN(C(=O)COc3ccc(Br)cc3C)CC2)OC1=O [(R)-4a] | > 100 µM

same assay, conditions: KAI2d1; YLG competition; Supplementary Fig. 27; read-out: IC50, replicate 3

Row | Structure (SMILES) | IC50
7 | CC1=C[C@@H](OC(=O)N2CCN(C(=O)COc3ccc(Br)cc3C)CC2)OC1=O [(R)-4a] | > 100 µM

same assay, conditions: KAI2d1; average of 3 replicates; Supplementary Fig. 27; read-out: IC50, average

Row | Structure (SMILES) | IC50
8 | CC1=C[C@@H](OC(=O)N2CCN(C(=O)COc3ccc(Br)cc3C)CC2)OC1=O [(R)-4a] | > 100 µM

same assay, conditions: KAI2d2; YLG competition; Supplementary Fig. 27; read-out: IC50, replicate 1

Row | Structure (SMILES) | IC50
9 | CC1=C[C@@H](OC(=O)N2CCN(C(=O)COc3ccc(Br)cc3C)CC2)OC1=O [(R)-4a] | > 100 µM

same assay, conditions: KAI2d2; YLG competition; Supplementary Fig. 27; read-out: IC50, replicate 2

Row | Structure (SMILES) | IC50
10 | CC1=C[C@@H](OC(=O)N2CCN(C(=O)COc3ccc(Br)cc3C)CC2)OC1=O [(R)-4a] | > 100 µM

same assay, conditions: KAI2d2; YLG competition; Supplementary Fig. 27; read-out: IC50, replicate 3

Row | Structure (SMILES) | IC50
11 | CC1=C[C@@H](OC(=O)N2CCN(C(=O)COc3ccc(Br)cc3C)CC2)OC1=O [(R)-4a] | > 100 µM

same assay, conditions: KAI2d2; average of 3 replicates; Supplementary Fig. 27; read-out: IC50, average

Row | Structure (SMILES) | IC50
12 | CC1=C[C@@H](OC(=O)N2CCN(C(=O)COc3ccc(Br)cc3C)CC2)OC1=O [(R)-4a] | > 100 µM

same assay, conditions: KAI2d3; YLG competition; Supplementary Fig. 27; read-out: IC50, replicate 1

Row | Structure (SMILES) | IC50
13 | CC1=C[C@@H](OC(=O)N2CCN(C(=O)COc3ccc(Br)cc3C)CC2)OC1=O [(R)-4a] | 84.6 µM

same assay, conditions: KAI2d3; YLG competition; Supplementary Fig. 27; read-out: IC50, replicate 2

Row | Structure (SMILES) | IC50
14 | CC1=C[C@@H](OC(=O)N2CCN(C(=O)COc3ccc(Br)cc3C)CC2)OC1=O [(R)-4a] | 78.5 µM

same assay, conditions: KAI2d3; YLG competition; Supplementary Fig. 27; read-out: IC50, replicate 3

Row | Structure (SMILES) | IC50
15 | CC1=C[C@@H](OC(=O)N2CCN(C(=O)COc3ccc(Br)cc3C)CC2)OC1=O [(R)-4a] | 91.5 µM

same assay, conditions: KAI2d3; average of 3 replicates; Supplementary Fig. 27; read-out: IC50, average

Row | Structure (SMILES) | IC50
16 | CC1=C[C@@H](OC(=O)N2CCN(C(=O)COc3ccc(Br)cc3C)CC2)OC1=O [(R)-4a] | 84.9 µM

same assay, conditions: KAI2d4; YLG competition; Supplementary Fig. 27; read-out: IC50, replicate 1

Row | Structure (SMILES) | IC50
17 | CC1=C[C@@H](OC(=O)N2CCN(C(=O)COc3ccc(Br)cc3C)CC2)OC1=O [(R)-4a] | > 100 µM

same assay, conditions: KAI2d4; YLG competition; Supplementary Fig. 27; read-out: IC50, replicate 2

Row | Structure (SMILES) | IC50
18 | CC1=C[C@@H](OC(=O)N2CCN(C(=O)COc3ccc(Br)cc3C)CC2)OC1=O [(R)-4a] | > 100 µM

same assay, conditions: KAI2d4; YLG competition; Supplementary Fig. 27; read-out: IC50, replicate 3

Row | Structure (SMILES) | IC50
19 | CC1=C[C@@H](OC(=O)N2CCN(C(=O)COc3ccc(Br)cc3C)CC2)OC1=O [(R)-4a] | > 100 µM

same assay, conditions: KAI2d4; average of 3 replicates; Supplementary Fig. 27; read-out: IC50, average

Row | Structure (SMILES) | IC50
20 | CC1=C[C@@H](OC(=O)N2CCN(C(=O)COc3ccc(Br)cc3C)CC2)OC1=O [(R)-4a] | > 100 µM

molecular target: T1, ShHTL7 (Striga hermonthica, UniProt A0A0M3PNA2); experiment: Competitive inhibition of ShHTL7 with Yoshimulactone Green (YLG) as substrate; assay type: biochemical; settings: ShHTL7; YLG competition; Supplementary Fig. 27; read-out: IC50, replicate 1
T1 sequence (A0A0M3PNA2 entry or part of it): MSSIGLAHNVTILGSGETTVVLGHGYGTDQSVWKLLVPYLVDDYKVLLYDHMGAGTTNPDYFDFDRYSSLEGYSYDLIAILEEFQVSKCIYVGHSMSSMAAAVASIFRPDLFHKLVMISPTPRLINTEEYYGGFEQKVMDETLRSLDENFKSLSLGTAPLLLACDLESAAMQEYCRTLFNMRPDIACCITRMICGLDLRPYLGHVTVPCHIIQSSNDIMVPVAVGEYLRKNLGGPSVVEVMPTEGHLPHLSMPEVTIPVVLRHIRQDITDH
Protocol: Based on the structural feature of the lead compound 2h, we selected three regions to perform further modification (Supplementary Fig. 6), to try to further improve bioactivity. Insertion of a carbonyl group between the bicyclo[2.2.1]hept-5-en-2-yl group and the piperazine ring was detrimental to binding affinity (Supplementary Fig. 6, region A). Removal of an oxygen atom in region B was found unfavorable to binding affinity as well. Therefore, we focused on modifying the benzene ring (region C) for 2h. A series of compounds with different groups at region C was synthesized (Supplementary Scheme 1). […] As SPR just measures the binding ability, another independent assay by using Yoshimulactone Green (YLG) as the fluorescent substrate was performed to determine the half-maximal inhibitory concentration (IC50) of these compounds against ShHTL7[22].
as §1

Row | Structure (SMILES) | IC50
21 | CC1=C[C@@H](OC(=O)N2CCN(C(=O)COc3ccc(Br)cc3C)CC2)OC1=O [(R)-4a] | 40.1 µM

same assay, conditions: ShHTL7; YLG competition; Supplementary Fig. 27; read-out: IC50, replicate 2

Row | Structure (SMILES) | IC50
22 | CC1=C[C@@H](OC(=O)N2CCN(C(=O)COc3ccc(Br)cc3C)CC2)OC1=O [(R)-4a] | 33.7 µM

same assay, conditions: ShHTL7; YLG competition; Supplementary Fig. 27; read-out: IC50, replicate 3

Row | Structure (SMILES) | IC50
23 | CC1=C[C@@H](OC(=O)N2CCN(C(=O)COc3ccc(Br)cc3C)CC2)OC1=O [(R)-4a] | 33.7 µM

same assay, conditions: ShHTL7; average of 3 replicates; Supplementary Fig. 27; read-out: IC50, average

Row | Structure (SMILES) | IC50
24 | CC1=C[C@@H](OC(=O)N2CCN(C(=O)COc3ccc(Br)cc3C)CC2)OC1=O [(R)-4a] | 35.8 µM

same assay, conditions: YLG as substrate; text and Fig. 2; read-out: IC50, competitive ShHTL7 inhibition (YLG assay)

Row | Structure (SMILES) | IC50
25 | CC1=C[C@@H](OC(=O)N2CCN(C(=O)COc3ccc(Br)cc3C)CC2)OC1=O [(R)-4a] | 35.8 ± 3.69 µM

same assay, conditions: wild-type ShHTL7; average of 3; source data of Fig. 2a,b, Supplementary Figs. 8a, 9a, 20b; read-out: IC50, competitive ShHTL7 inhibition (YLG), source data average

Row | Structure (SMILES) | IC50
26 | CC1=C[C@@H](OC(=O)N2CCN(C(=O)COc3ccc(Br)cc3C)CC2)OC1=O [(R)-4a] | 35.8 µM

molecular target: T2, AtD14 (Arabidopsis thaliana, UniProt Q9SQR3); experiment: Competitive inhibition of AtD14 with YLG as substrate; assay type: biochemical; settings: YLG as the substrate; read-out: Competitive AtD14 inhibitory activity IC50
T2 construct: His tag; made in house; host or cells: E. coli BL21
T2 sequence (Q9SQR3 1-267): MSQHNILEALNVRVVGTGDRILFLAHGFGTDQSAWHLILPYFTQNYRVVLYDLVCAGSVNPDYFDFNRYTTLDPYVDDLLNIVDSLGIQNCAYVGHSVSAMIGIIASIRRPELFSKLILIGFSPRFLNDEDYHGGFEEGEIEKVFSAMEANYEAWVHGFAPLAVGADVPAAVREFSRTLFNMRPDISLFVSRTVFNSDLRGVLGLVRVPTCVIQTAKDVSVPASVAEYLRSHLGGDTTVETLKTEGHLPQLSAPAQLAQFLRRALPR
Protocol: as §1

Row | Structure (SMILES) | IC50
27 | CC1=C[C@@H](OC(=O)N2CCN(C(=O)COc3ccc(Br)cc3C)CC2)OC1=O [(R)-4a] | > 100 µM

molecular target: T1, ShHTL7; experiment: biochemical; assay type: binding; settings: Supplementary Table 7; binding affinities between ShHTL7 and agonists by SPR; read-out: KD/μM
Protocol: We used a sensitive, high-throughput Surface plasmon resonance (SPR) method to examine the binding affinities of the 51 candidates to the recombinant ShHTL7 protein, which was immobilized on the CM5 sensor chip. rac-GR24 was used as a positive control.
The interactions of small molecules with recombinant ShHTL7 were evaluated using the Biacore T200 system (GE Healthcare, USA) at 25 °C[47]. The purified ShHTL7 protein was immobilized on a CM5 sensor chip using the standard amine coupling procedure. […] PBS-P (10 mM phosphate buffer, 2.7 mM KCl, 137 mM NaCl, 0.05% Surfactant P20) containing 0.5% DMSO was used as the running buffer. For the screening experiments, candidates with different structures at 50 μM in the running buffer were injected individually at a flow rate of 30 μL min^−1. For binding affinity studies, compounds with different concentrations in running buffer were used. During the experiments, both the contact and dissociation times were set as 1 min. Data analysis was performed using the Biacore Evaluation Software (T200 Version 2.0). The affinity values (KD) were obtained by the kinetics analysis or the steady-state affinity method.

Row | Structure (SMILES) | Kd
28 | CC1=C[C@@H](OC(=O)N2CCN(C(=O)COc3ccc(Br)cc3C)CC2)OC1=O [(R)-4a] | 1.69 ± 0.04 µM
